# Assays:
# [1] = test system: subclones of RKO colon adenocarcinoma cells (RKOp27 or RKOp21) arrested by Ponasterone A; assay: Alamar Blue cell viability assay, cell cycle specific mode of action: cells arrested by ectopic p27Kip1 induced by Ponasterone A versus proliferating cells; type: cell-based; settings: Homo sapiens, RKO p27 induced (arrested) cells, 10 μM Ponasterone A, 72 hours, value = class bound given in Table A, read-out: −logIC50 RKO p27 induced (arrested) (converted)
# Method in brief: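 Viability of proliferating versus Ponasterone A (10 μM)-arrested RKOp27/RKOp21 cells after 72 h compound exposure at 37° C, in quadruplicate. Read-out is Alamar Blue fluorescence (544/590 nm) normalised to untreated cells = 100%; values as −log IC50.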
# [2] = test system: RKO (RKOp27) human colon adenocarcinoma cells; assay: Alamar Blue cell viability assay, anti-proliferative/cytotoxic activity on proliferating RKO subclones; type: cell-based; settings: RKOp27, 72 h, RKO p27 uninduced (proliferating) cells, value = class bound given in Table A, read-out: −logIC50 RKO p27 uninduced (proliferating) (converted)
# Method in brief: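 Alamar Blue fluorescence (ex 544, em 590 nm) after 72 h compound exposure at 37 °C, 5% CO2, normalised to untreated controls set at 100%. Cells were seeded at 5000 per well and dosed 24 h later with serial semi-logarithmic dilutions in 10% FCS DMEM, four replicates each. −log IC50 [mol/l] was derived from concentration-effect curves.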
IC50 [1],Structure (SMILES),IC50 [2]
≥ 100 µM,"COC1CN(C(=O)OC2CCc3c(sc(NC(=O)/C=C/c4cccnc4)c3C#N)C2)C1 (stereo not shown) [Example 118, 3-Methoxy-azetidine-1-carboxylic acid 3-cyano-2-((E)-3-pyridin-3-yl-allanoylamino)-4,5,6,7-tetrahydro-benzo[b]thiophen-6-yl ester]",501 to 2000 nM
≥ 100 µM,"N#Cc1c(NC(=O)/C=C/c2cccnc2)sc2c1CCC(OC(=O)N1CCCO1)C2 (stereo not shown) [Example 119, Isoxazolidine-2-carboxylic acid 3-cyano-2-((E)-3-pyridin-3-yl-allanoylamino)-4,5,6,7-tetrahydro-benzo[b]thiophen-6-yl ester]",≤ 501 nM
≥ 100 µM,"N#Cc1c(NC(=O)/C=C/c2cccnc2)sc2c1CCC(OC(=O)N1CCCCO1)C2 (stereo not shown) [Example 120, [1,2]Oxazinane-2-carboxylic acid 3-cyano-2-((E)-3-pyridin-3-yl-allanoylamino)-4,5,6,7-tetrahydro-benzo[b]thiophen-6-yl ester]",≤ 501 nM
≥ 100 µM,"N#Cc1c(NC(=O)/C=C/c2cccnc2)sc2c1CCC(COC(=O)N1CC(F)C1)C2 (stereo not shown) [Example 121, 3-Fluoro-azetidine-1-carboxylic acid 3-cyano-2-((E)-3-pyridin-3-yl-allanoylamino)-4,5,6,7-tetrahydro-benzo[b]thiophen-6-ylmethyl ester]",≤ 501 nM
≥ 100 µM,"N#Cc1c(NC(=O)/C=C/c2cccnc2)sc2c1CCC(COC(=O)N1CC[C@@H](O)[C@@H](O)C1)C2 (stereo partly drawn) [Example 122, cis-3-, 4-Dihydroxy-piperidine-1-carboxylic acid 3-cyano-2-((E)-3-pyridin-3-yl-allanoylamino)-4,5,6,7-tetrahydro-benzo[b]thiophen-6-ylmethyl ester]",≤ 501 nM
≥ 100 µM,"CN(CC(O)CO)C(=O)OCC1CCc2c(sc(NC(=O)/C=C/c3cccnc3)c2C#N)C1 (stereo not shown) [Example 123, (2,3-Dihydroxy-propyl)-methyl-carbamic acid 3-cyano-2-((E)-3-pyridin-3-yl-allanoylamino)-4,5,6,7-tetrahydro-benzo[b]thiophen-6-ylmethyl ester]",501 to 2000 nM
≥ 100 µM,"N#Cc1c(NC(=O)/C=C/c2cccnc2)sc2c1CCC(OC(=O)N1CC(F)C1)C2 (stereo not shown) [Example 124, 3-Fluoro-azetidine-1-carboxylic acid 3-cyano-2-((E)-3-pyridin-3-yl-allanoylamino)-4,5,6,7-tetrahydro-benzo[b]thiophen-6-yl ester]",≤ 501 nM
≥ 100 µM,"N#Cc1c(NC(=O)/C=C/c2cccnc2)sc2c1CCC(OC(=O)N1CC[C@@H](O)[C@@H](O)C1)C2 (stereo partly drawn) [Example 125, cis-3-, 4-Dihydroxy-piperidine-1-carboxylic acid 3-cyano-2-((E)-3-pyridin-3-yl-allanoylamino)-4,5,6,7-tetrahydro-benzo[b]thiophen-6-yl ester]",501 to 2000 nM
≥ 100 µM,"CN(CC(O)CO)C(=O)OC1CCc2c(sc(NC(=O)/C=C/c3cccnc3)c2C#N)C1 (stereo not shown) [Example 126, (2,3-Dihydroxy-propyl)-methyl-carbamic acid 3-cyano-2-((E)-3-pyridin-3-yl-allanoylamino)-4,5,6,7-tetrahydro-benzo[b]thiophen-6-yl ester]",501 to 2000 nM
≥ 100 µM,"CS(=O)(=O)NC1CCN(C(=O)OC2CCc3c(sc(NC(=O)/C=C/c4cccnc4)c3C#N)C2)CC1 (stereo not shown) [Example 127, 4-Methane-sulfonylamino-piperidine-1-carboxylic acid 3-cyano-2-((E)-3-pyridin-3-yl-allanoylamino)-4,5,6,7-tetrahydro-benzo[b]thiophen-6-yl ester]",≤ 501 nM
≥ 100 µM,"N#Cc1c(NC(=O)/C=C/c2cccnc2)sc2c1CCC(OC(=O)N[C@H]1CC[C@@H](O)CC1)C2 (stereo partly drawn) [Example 128, cis-4-Hydroxycyclohexyl-carbamic acid 3-cyano-2-((E)-3-pyridin-3-yl-allanoylamino)-4,5,6,7-tetrahydro-benzo[b]thiophen-6-yl ester]",501 to 2000 nM

# From patent US20110044938A1 (NYCOMED GMBH, priority 2006, published 2011)
